According to patent publication US20260070899A1, “N-(2-(4-CYANOTHIAZOLIDIN-3-YL)-2-OXOETHYL)-QUINOLINE-4-CARBOXAMIDES” (AstraZeneca AB, priority 2022, published 2026):

Legend:
[1] = target: T1, Prolyl endopeptidase, Prolyl Oligopeptidase (hPREP) (Homo sapiens, UniProt P48147); test: biochemical
T1 sequence (P48147 1-710): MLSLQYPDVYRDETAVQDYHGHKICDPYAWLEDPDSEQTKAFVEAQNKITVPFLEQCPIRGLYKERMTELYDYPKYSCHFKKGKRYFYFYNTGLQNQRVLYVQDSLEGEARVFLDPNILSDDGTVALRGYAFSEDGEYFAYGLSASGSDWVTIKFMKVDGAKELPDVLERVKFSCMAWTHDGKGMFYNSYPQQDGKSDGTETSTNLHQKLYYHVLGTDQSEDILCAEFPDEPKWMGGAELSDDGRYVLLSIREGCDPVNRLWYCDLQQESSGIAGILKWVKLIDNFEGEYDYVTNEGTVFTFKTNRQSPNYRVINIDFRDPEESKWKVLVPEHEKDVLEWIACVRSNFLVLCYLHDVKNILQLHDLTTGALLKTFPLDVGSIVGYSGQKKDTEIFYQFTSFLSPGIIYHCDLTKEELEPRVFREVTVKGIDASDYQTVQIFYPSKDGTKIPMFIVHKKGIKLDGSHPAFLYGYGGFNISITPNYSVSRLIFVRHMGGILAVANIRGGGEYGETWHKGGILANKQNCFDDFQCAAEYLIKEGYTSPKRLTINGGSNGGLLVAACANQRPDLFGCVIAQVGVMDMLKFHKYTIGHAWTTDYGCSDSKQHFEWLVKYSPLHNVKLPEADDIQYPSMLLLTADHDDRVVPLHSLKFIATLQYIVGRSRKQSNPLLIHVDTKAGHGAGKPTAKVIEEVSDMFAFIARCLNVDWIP
Protocol: Compounds were tested in a biochemical inhibition assay using Prolyl endopeptidase, Prolyl Oligopeptidase (hPREP) enzyme at 0.6 nM FAC (R&D Systems, 4308-SE) and the substrate Z-Gly-Pro-amino-methylcoumarin (Bachem, I-1145) at 50 μM FAC. 384 Low volume black plates (Greiner #784076) were used. […] Plates were incubated for 15 min at rt in dark. 4 μL, 100 μM substrate solution (25 mM Tris HCl, 250 mM NaCl, 0.01% Triton X-100, 5 mM Glutathione, pH 7.5) was added to each well. Plates were centrifuged at 1000 rpm and incubated for 20 min at rt in dark. The plates were read on a PHERAstar® reader with excitation 340 nm and emission 460 nm. Data were analyzed in Genedata Screener®. IC50 values were determined by plotting % inhibition versus log compound concentration and using a one site dose response model.

[2] = target: T2, hFAP (M39-A757) (Homo sapiens, UniProt Q12884); test: biochemical;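 also: surface plasmon resonance direct binding to hFAP amine-coupled on a sensor chip, rising compound concentrations by single cycle kinetics, Kd from global fit of interaction models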
T2 sequence (Q12884 39-757): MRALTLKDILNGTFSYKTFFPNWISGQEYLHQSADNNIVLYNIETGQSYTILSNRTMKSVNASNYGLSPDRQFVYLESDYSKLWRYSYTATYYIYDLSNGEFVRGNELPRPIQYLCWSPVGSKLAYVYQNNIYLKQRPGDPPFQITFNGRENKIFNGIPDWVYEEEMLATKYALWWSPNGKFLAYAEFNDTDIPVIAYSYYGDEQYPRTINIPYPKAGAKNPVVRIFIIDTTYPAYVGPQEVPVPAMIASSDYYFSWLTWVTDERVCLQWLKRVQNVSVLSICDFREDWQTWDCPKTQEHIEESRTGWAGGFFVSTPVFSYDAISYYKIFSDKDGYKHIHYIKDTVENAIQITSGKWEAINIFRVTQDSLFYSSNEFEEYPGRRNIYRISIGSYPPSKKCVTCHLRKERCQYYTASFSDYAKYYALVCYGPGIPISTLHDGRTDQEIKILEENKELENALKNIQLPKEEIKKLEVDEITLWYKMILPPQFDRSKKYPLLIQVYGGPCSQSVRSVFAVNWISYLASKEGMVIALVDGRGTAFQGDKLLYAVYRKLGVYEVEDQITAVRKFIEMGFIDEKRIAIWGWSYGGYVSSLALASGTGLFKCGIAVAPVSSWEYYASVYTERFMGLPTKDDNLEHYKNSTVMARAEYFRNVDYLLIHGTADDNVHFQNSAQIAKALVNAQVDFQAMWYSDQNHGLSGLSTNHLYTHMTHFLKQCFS

Row | Structure (SMILES) | IC50 [1] [nM] | Kd [2] [nM]
1 | CC1(C)CC(Oc2ccc3nccc(C(=O)NCC(=O)N4CSC[C@H]4C#N)c3c2)CCO1 (mixture of isomers) [Example 9, N-(2-((R)-4-Cyanothiazolidin-3-yl)-2-oxoethyl)-6-(((RS)-2,2-dimethyltetrahydro-2H-pyran-4-yl)oxy)quinoline-4-carboxamide] | 870 | –
2 | N#C[C@@H]1CSCN1C(=O)CNC(=O)c1ccnc2ccc(COC3CCOC3)cc12 (mixture of isomers) [Example 35, N-(2-((R)-4-Cyanothiazolidin-3-yl)-2-oxoethyl)-6-((((RS)-tetrahydrofuran-3-yl)oxy)methyl)quinoline-4-carboxamide] | 460 | –
3 | N#C[C@@H]1CSCN1C(=O)CNC(=O)c1ccnc2ccc(CC3CCOC3)cc12 (mixture of isomers) [Example 65, N-(2-((R)-4-Cyanothiazolidin-3-yl)-2-oxoethyl)-6-(((RS)-tetrahydrofuran-3-yl)methyl)quinoline-4-carboxamide] | 210 | 0.091
4 | N#C[C@@H]1CSCN1C(=O)CNC(=O)c1ccnc2ccc([C@H]3CC[C@H](C#N)CC3)cc12 (single isomer, unassigned) [Example 54, 6-((1r,4R*)-4-Cyanocyclohexyl)-N-(2-((R)-4-cyanothiazolidin-3-yl)-2-oxoethyl)quinoline-4-carboxamide] | 620 | –
5 | N#C[C@@H]1CSCN1C(=O)CNC(=O)c1ccnc2ccc([C@H]3CC[C@H](C#N)CC3)cc12 (single isomer, unassigned) [Example 55, 6-((1r,4R*)-4-Cyanocyclohexyl)-N-(2-((R)-4-cyanothiazolidin-3-yl)-2-oxoethyl)quinoline-4-carboxamide] | 330 | –
6 | CO[C@H]1C[C@](F)(c2ccc3nccc(C(=O)NCC(=O)N4CSC[C@H]4C#N)c3c2)C1 (single isomer, unassigned) [Example 62, N-(2-((R)-4-Cyanothiazolidin-3-yl)-2-oxoethyl)-6-((1r,3R*)-1-fluoro-3-methoxycyclobutyl)quinoline-4-carboxamide] | 520 | 0.11
7 | CO[C@H]1C[C@](F)(c2ccc3nccc(C(=O)NCC(=O)N4CSC[C@H]4C#N)c3c2)C1 (single isomer, unassigned) [Example 63, N-(2-((R)-4-Cyanothiazolidin-3-yl)-2-oxoethyl)-6-((1r,3R*)-1-fluoro-3-methoxycyclobutyl)quinoline-4-carboxamide] | 330 | 0.097
8 | CO[C@H]1CC[C@@H](c2ccc3nccc(C(=O)NCC(=O)N4CSC[C@H]4C#N)c3c2)CC1 (single isomer, unassigned) [Example 79, N-(2-((R)-4-Cyanothiazolidin-3-yl)-2-oxoethyl)-6-((1r,4R*)-4-methoxycyclohexyl)quinoline-4-carboxamide] | 610 | –
9 | N#C[C@@H]1CSCN1C(=O)CNC(=O)c1ccnc2ccc(OCC3CC3)cc12 [Example 5, (R)—N-(2-(4-Cyanothiazolidin-3-yl)-2-oxoethyl)-6-(cyclopropyl-methoxy)quinoline-4-carboxamide] | 400 | –
10 | CC(F)(F)COc1ccc2nccc(C(=O)NCC(=O)N3CSC[C@H]3C#N)c2c1 [Example 11, (R)—N-(2-(4-Cyanothiazolidin-3-yl)-2-oxoethyl)-6-(2,2-difluoropropoxy)quinoline-4-carboxamide] | 290 | –
11 | N#C[C@@H]1CSCN1C(=O)CNC(=O)c1ccnc2ccc(CN3CCOCC3)cc12 [Example 24, (R)—N-(2-(4-Cyanothiazolidin-3-yl)-2-oxoethyl)-6-(morpholino-methyl)quinoline-4-carboxamide] | 1000 | 0.33
12 | CCOCc1ccc2nccc(C(=O)NCC(=O)N3CSC[C@H]3C#N)c2c1 [Example 27, (R)—N-(2-(4-cyanothiazolidin-3-yl)-2-oxoethyl)-6-(ethoxymethyl)-quinoline-4-carboxamide] | 140 | –
13 | COCCOCc1ccc2nccc(C(=O)NCC(=O)N3CSC[C@H]3C#N)c2c1 [Example 31, (R)—N-(2-(4-Cyanothiazolidin-3-yl)-2-oxoethyl)-6-((2-methoxyethoxy)-methyl)quinoline-4-carboxamide] | 910 | 0.4
14 | N#C[C@@H]1CSCN1C(=O)CNC(=O)c1ccnc2ccc(COCC(F)F)cc12 [Example 36, (R)—N-(2-(4-Cyanothiazolidin-3-yl)-2-oxoethyl)-6-((2,2-difluoroethoxy)methyl)quinoline-4-carboxamide] | 170 | –
15 | N#C[C@@H]1CSCN1C(=O)CNC(=O)c1ccnc2ccc(COC3CC3)cc12 [Example 37, (R)—N-(2-(4-Cyanothiazolidin-3-yl)-2-oxoethyl)-6-(cyclopropoxy-methyl)quinoline-4-carboxamide] | 170 | –
16 | Cc1cc(C2(c3ccc4nccc(C(=O)NCC(=O)N5CSC[C@H]5C#N)c4c3)CC2)on1 [Example 50, (R)—N-(2-(4-Cyanothiazolidin-3-yl)-2-oxoethyl)-6-(1-(3-methylisoxazol-5-yl)cyclopropyl)quinoline-4-carboxamide] | 130 | –
17 | N#C[C@@H]1CSCN1C(=O)CNC(=O)c1ccnc2ccc(CC3CCOCC3)cc12 [Example 56, (R)—N-(2-(4-Cyanothiazolidin-3-yl)-2-oxoethyl)-6-((tetrahydro-2H-pyran-4-yl)methyl)quinoline-4-carboxamide] | 500 | –
18 | C#CC1(c2ccc3nccc(C(=O)NCC(=O)N4CSC[C@H]4C#N)c3c2)CCOCC1 [Example 57, (R)—N-(2-(4-Cyanothiazolidin-3-yl)-2-oxoethyl)-6-(4-ethynyl-tetrahydro-2H-pyran-4-yl)quinoline-4-carboxamide] | 790 | –
19 | CCCOc1ccc2nccc(C(=O)NCC(=O)N3CSC[C@H]3C#N)c2c1 [Example 73, (R)—N-(2-(4-Cyanothiazolidin-3-yl)-2-oxoethyl)-6-propoxyquinoline-4-carboxamide] | 160 | –

These reach a lower IC50 [1]. Values come first.

Row | IC50 [1] [nM] | Kd [2] [nM] | Structure (SMILES)
20 | 110 | 0.19 | CC(c1ccc2nccc(C(=O)NCC(=O)N3CSC[C@H]3C#N)c2c1)c1ncccc1F (mixture of isomers) [Example 12, N-(2-((R)-4-Cyanothiazolidin-3-yl)-2-oxoethyl)-6-((RS)-1-(3-fluoropyridin-2-yl)ethyl)quinoline-4-carboxamide]
21 | 80 | 0.13 | Cc1cc(C(C)c2ccc3nccc(C(=O)NCC(=O)N4CSC[C@H]4C#N)c3c2)no1 (mixture of isomers) [Example 46, N-(2-((R)-4-Cyanothiazolidin-3-yl)-2-oxoethyl)-6-((RS)-1-(5-methylisoxazol-3-yl)ethyl)quinoline-4-carboxamide]
22 | 32 | – | N#CCOc1ccc2nccc(C(=O)NCC(=O)N3CSC[C@H]3C#N)c2c1 [Example 10, (R)-6-(Cyanomethoxy)-N-(2-(4-cyanothiazolidin-3-yl)-2-oxoethyl)quinoline-4-carboxamide]
23 | 65 | 0.14 | N#C[C@@H]1CSCN1C(=O)CNC(=O)c1ccnc2ccc(C3(c4ncccc4F)CC3)cc12 [Example 44, (R)—N-(2-(4-Cyanothiazolidin-3-yl)-2-oxoethyl)-6-(1-(3-fluoropyridin-2-yl)cyclopropyl)quinoline-4-carboxamide]
24 | 83 | – | N#C[C@@H]1CSCN1C(=O)CNC(=O)c1ccnc2ccc(OCCF)cc12 [Example 74, (R)—N-(2-(4-Cyanothiazolidin-3-yl)-2-oxoethyl)-6-(2-fluoroethoxy)-quinoline-4-carboxamide]
25 | 46 | – | N#C[C@@H]1CSCN1C(=O)CNC(=O)c1ccnc2ccc(C3(F)CCC3)cc12 [Example 75, (R)—N-(2-(4-Cyanothiazolidin-3-yl)-2-oxoethyl)-6-(1-fluoro-cyclobutyl)quinoline-4-carboxamide]
26 | 62 | – | COCCCc1ccc2nccc(C(=O)NCC(=O)N3CSC[C@H]3C#N)c2c1 [Example 81, (R)—N-(2-(4-cyanothiazolidin-3-yl)-2-oxoethyl)-6-(3-methoxypropyl)quinoline-4-carboxamide]
27 | 48 | – | COCCc1ccc2nccc(C(=O)NCC(=O)N3CSC[C@H]3C#N)c2c1 [Example 82, (R)—N-(2-(4-cyanothiazolidin-3-yl)-2-oxoethyl)-6-(2-methoxyethyl)quinoline-4-carboxamide]
